Key:
[1] = test system: Hela nucleus extract containing a mixture of HDAC isoforms; assay: In vitro HDAC inhibitory assay, HeLa cell nuclear extract screening at 2 µM; format: biochemical; settings: 2.0 µM compound, mean of three experiments
Method: The HDAC enzyme inhibitory activities of synthesized compounds were evaluated against Hela nucleus extract containing a mixture of HDAC isoforms. Percentage inhibitory rate (PIR) was calculated to determine the activity of tested compounds (Table 1).
All HDAC enzymes were purchased from BPS Bioscience. […] The reaction was terminated by adding 100 μl of imaging agent containing trypsin and trichostatin A (TSA). After standing for 20 min, the fluorescence intensity was measured at the excitation and emission wavelengths of 360 and 460 nm with a microplate reader. The inhibition rate was calculated from the fluorescence intensity readings of the test wells relative to the control wells, and the IC50 curve and value were determined by GraphPad Prism 6.0 software.

[2] = test system: K562 cells; assay: CCK-8 antiproliferative assay, K562; settings: for inhibition at 2 µM: Homo sapiens, K562, read-out: K562 percentage inhibitory rate; for K562 percentage inhibitory rate: 2.0 µM compound, K562 cells, CCK-8, mean of three experiments
Method: The proliferation of cancer cells was tested by CCK-8 assay. Briefly, cells were seeded in a 96-well plate with about 5 × 10^3 cells in each well. In the K652 cell screening, cells were treated with 2.0 μM of tested compounds. […] The light absorbance at 450 nm was measured by using an Opsys microplate reader (Dynex Technologies, Chantilly, VA, United States).

Compound	HDACs percentage inhibitory rate (PIR) [1] [%]	inhibition at 2 µM [2] [%]	melting point [°C]	K562 percentage inhibitory rate [2] [%]
O=C(NO)c1ccc(N2CCN(C(=O)c3cc(-c4ccc(NC(=O)c5cccc(Br)c5)cc4)nc4ccccc34)CC2)cc1 [Compound D21, 3-Bromo-N-(4-(4-(4-(4-(Hydroxycarbamoyl)Phenyl)Piperazine-1-Carbonyl)Quinolin-2-yl)Phenyl)Benzamide]	50.26 ± 1.41	47.6 ± 0.92	170.5 to 170.8	
O=C(NO)c1ccc(N2CCN(C(=O)c3cc(-c4ccc(Cl)cc4)nc4ccccc34)CC2)cc1 [Compound D3, 4-(4-(2-(4-Chlorophenyl)Quinoline-4-Carbonyl)Piperazin-1-yl)-N-Hydroxybenzamide]	49.43 ± 3.73	46.4 ± 0.53	228.1 to 229.2	
O=C(NO)c1ccc(N2CCN(C(=O)c3cc(-c4ccc(NC(=O)c5ccc(F)cc5F)cc4)nc4ccccc34)CC2)cc1 [Compound D24, 2,4-Difluoro-N-(4-(4-(4-(4-(Hydroxycarbamoyl)Phenyl)Piperazine-1-Carbonyl)Quinolin-2-yl)Phenyl)Benzamide]	66.16 ± 1.57	31.1 ± 0.54	175.3 to 176.3	
O=C(NO)c1ccc(N2CCN(C(=O)c3cc(-c4ccc(NC(=O)c5ccc(F)cc5)cc4)nc4ccccc34)CC2)cc1 [Compound D20, 4-Fluoro-N-(4-(4-(4-(4-(Hydroxycarbamoyl)Phenyl)Piperazine-1-Carbonyl)Quinolin-2-yl)Phenyl)Benzamide]	48.46 ± 0.68	45.9 ± 1.34	178.3 to 180.3	
COc1cccc(-c2cc(C(=O)N3CCN(c4ccc(C(=O)NO)cc4)CC3)c3ccccc3n2)c1 [Compound D11, N-Hydroxy-4-(4-(2-(3-Methoxyphenyl)Quinoline-4-Carbonyl)Piperazin-1-yl)Benzamide]	63.49 ± 4.61	46.09 ± 0.43	179.8 to 180.9	
O=C(NO)c1ccc(N2CCN(C(=O)c3cc(-c4cc(F)ccc4F)nc4ccccc34)CC2)cc1 [Compound D27, 4-(4-(2-(2,5-Difluorophenyl)Quinoline-4-Carbonyl)Piperazin-1-yl)-N-Hydroxybenzamide]	59.30 ± 0.74	63.79 ± 0.13	196.9 to 198	
CSc1ccc(-c2cc(C(=O)N3CCN(c4ccc(C(=O)NO)cc4)CC3)c3ccccc3n2)cc1 [Compound D5, N-Hydroxy-4-(4-(2-(4-(Methylthio)Phenyl)Quinoline-4-Carbonyl)Piperazin-1-yl)Benzamide]	50.93 ± 0.93	47.4 ± 1.11	177.2 to 179.6	
O=C(NO)c1ccc(N2CCN(C(=O)c3cc(-c4ccccc4Cl)nc4ccccc34)CC2)cc1 [Compound D14, 4-(4-(2-(2-Chlorophenyl)Quinoline-4-Carbonyl)Piperazin-1-yl)-N-Hydroxybenzamide]	49.74 ± 2.06	48.3 ± 1.02	235 to 236.4	
O=C(NO)c1ccc(N2CCN(C(=O)c3cc(-c4ccc(NC(=O)c5ccccc5)cc4)nc4ccccc34)CC2)cc1 [Compound D19, 4-(4-(2-(4-Benzamidophenyl)Quinoline-4-Carbonyl)Piperazin-1-yl)-N-Hydroxybenzamide]	45.31 ± 0.68	59.19 ± 0.35	173.9 to 174.8	
CN(C)c1ccc(-c2cc(C(=O)N3CCN(c4ccc(C(=O)NO)cc4)CC3)c3ccccc3n2)cc1 [Compound D18, 4-(4-(2-(4-(Dimethylamino)Phenyl)Quinoline-4-Carbonyl)Piperazin-1-yl)-N-Hydroxybenzamide]	48.37 ± 0.35	48.3 ± 0.31	200.6 to 201.2	
O=C(NO)c1ccc(N2CCN(C(=O)c3cc(-c4ccc(NC(=O)c5ccccc5Cl)cc4)nc4ccccc34)CC2)cc1 [Compound D23, 2-Chloro-N-(4-(4-(4-(4-(Hydroxycarbamoyl)Phenyl)Piperazine-1-Carbonyl)Quinolin-2-yl)Phenyl)Benzamide]	62.91 ± 2.26	61.92 ± 0.42	167.2 to 167.8	
O=C(NO)c1ccc(N2CCN(C(=O)c3cc(-c4ccc(F)cc4)nc4ccccc34)CC2)cc1 [Compound D4, 4-(4-(2-(4-Fluorophenyl)Quinoline-4-Carbonyl)Piperazin-1-yl)-N-Hydroxybenzamide]	47.79 ± 1.34	32.43 ± 0.2	163.5 to 164.8	
N-Hydroxy-4-(4-(2-(o-Tolyl)Quinoline-4-Carbonyl)Piperazin-1-yl)Benzamide [Compound D16]	49.04 ± 31.22			15.26 ± 0.33
O=C(NO)c1ccc(N2CCN(C(=O)c3cc(-c4ccccc4F)nc4ccccc34)CC2)cc1 [Compound D10, 4-(4-(2-(2-Fluorophenyl)Quinoline-4-Carbonyl)Piperazin-1-yl)-N-Hydroxybenzamide]	58.52 ± 0.64	40.9 ± 1.22	172.5 to 173.3	
COc1ccc(-c2cc(C(=O)N3CCN(c4ccc(C(=O)NO)cc4)CC3)c3ccccc3n2)cc1 [Compound D6, N-Hydroxy-4-(4-(2-(4-Methoxyphenyl)Quinoline-4-Carbonyl)Piperazin-1-yl)Benzamide]	52.31 ± 3.09	51.55 ± 0.25	184.3 to 186.8	
O=C(NO)c1ccc(N2CCN(C(=O)c3cc(-c4ccc(C(F)(F)F)cc4)nc4ccccc34)CC2)cc1 [Compound D7, N-Hydroxy-4-(4-(2-(4-(Trifluoromethyl)Phenyl)Quinoline-4-Carbonyl)Piperazin-1-yl)Benzamide]	52.60 ± 2.37	40.3 ± 1.2	212.7 to 213.9	
4-(4-(2-(4-Fluoro-3-Methylphenyl)Quinoline-4-Carbonyl)Piperazin-1-yl)-N-Hydroxybenzamide [Compound D17]	47.41 ± 1.03			41.91 ± 0.13
Cc1cccc(-c2cc(C(=O)N3CCN(c4ccc(C(=O)NO)cc4)CC3)c3ccccc3n2)c1 [Compound D9, N-Hydroxy-4-(4-(2-(m-Tolyl)Quinoline-4-Carbonyl)Piperazin-1-yl)Benzamide]	49.33 ± 0.82	45.81 ± 0.33	199.2 to 199.7	
O=C(NO)c1ccc(N2CCN(C(=O)c3cc(-c4cccc(F)c4)nc4ccccc34)CC2)cc1 [Compound D15, 4-(4-(2-(3-Fluorophenyl)Quinoline-4-Carbonyl)Piperazin-1-yl)-N-Hydroxybenzamide]	58.80 ± 2.95	26.2 ± 0.62	225 to 226.3	
O=C(NO)c1ccc(N2CCN(C(=O)c3cc(-c4ccc(Br)cc4)nc4ccccc34)CC2)cc1 [Compound D2, 4-(4-(2-(4-Bromophenyl)Quinoline-4-Carbonyl)Piperazin-1-yl)-N-Hydroxybenzamide]	59.50 ± 0.35	48.8 ± 1.32	231.7 to 232.8	
O=C(NO)c1ccc(N2CCN(C(=O)c3cc(-c4cc(F)cc(F)c4)nc4ccccc34)CC2)cc1 [Compound D12, 4-(4-(2-(3,5-Difluorophenyl)Quinoline-4-Carbonyl)Piperazin-1-yl)-N-Hydroxybenzamide]	74.91 ± 0.35	51.8 ± 1.35	221.8 to 222	
O=C(NO)c1ccc(N2CCN(C(=O)c3cc(-c4cccc(Cl)c4)nc4ccccc34)CC2)cc1 [Compound D8, 4-(4-(2-(3-Chlorophenyl)Quinoline-4-Carbonyl)Piperazin-1-yl)-N-Hydroxybenzamide]	51.81 ± 4.07	42.9 ± 1.02	207.1 to 208.9	
COc1ccccc1-c1cc(C(=O)N2CCN(c3ccc(C(=O)NO)cc3)CC2)c2ccccc2n1 [Compound D13, N-Hydroxy-4-(4-(2-(2-Methoxyphenyl)Quinoline-4-Carbonyl)Piperazin-1-yl)Benzamide]	54.24 ± 0.18	43.81 ± 0.26	224 to 224.9	
O=C(NO)c1ccc(N2CCN(C(=O)c3cc(-c4ccccc4)nc4ccccc34)CC2)cc1 [Compound D1, N-Hydroxy-4-(4-(2-Phenylquinoline-4-Carbonyl)Piperazin-1-yl)Benzamide]	57.96 ± 0.43	46.58 ± 0.35	213.8 to 214.8	
O=C(NO)c1ccc(N2CCN(C(=O)c3cc(-c4ccc(NC(=O)c5cccc(F)c5)cc4)nc4ccccc34)CC2)cc1 [Compound D26, 3-Fluoro-N-(4-(4-(4-(4-(Hydroxycarbamoyl)Phenyl)Piperazine-1-Carbonyl)Quinolin-2-yl)Phenyl)Benzamide]	49.99 ± 0.32	43.1 ± 0.64	232.6 to 232.9	
3,5-Difluoro-N-(4-(4-(4-(4-(Hydroxycarbamoyl)Phenyl)Piperazine-1-Carbonyl)Quinolin-2-yl)Phenyl)Benzamide [Compound D25]	54.74 ± 1.41			37.64 ± 0.13
